This experiment relates to L1210 leukemia ip in BDF1 mice, survival T/C. Kind of experiment: NCI In Vivo Anticancer Drug Screen. Data for tumor model L1210 Leukemia (intraperitoneal) in B6D2F1 (BDF1) mice. As to conditions: endpoint: mean survival time, higher = longer survival. The method, boiled down: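 Antitumor effect is assessed in tumor-bearing animals. Survival in the compound arm is compared with a vehicle-dosed control arm and expressed as their quotient.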

Where [1] appears, read: dose: 100.0 mg/kg/injection, schedule: Q01DX009 (ip), vehicle: saline with Tween-80.
[2] abbreviates: dose: 200.0 mg/kg/injection, schedule: Q01DX009 (ip), vehicle: saline with Tween-80.
Setting [3] is: dose: 400.0 mg/kg/injection, schedule: Q01DX009 (ip), vehicle: saline with Tween-80.
The mark [4] stands for this setting: dose: 100.0 mg/kg/injection, schedule: Q01DX001 (ip), vehicle: saline with Tween-80.
The mark [5] stands for this setting: dose: 200.0 mg/kg/injection, schedule: Q01DX001 (ip), vehicle: saline with Tween-80.
The mark [6] stands for this setting: dose: 400.0 mg/kg/injection, schedule: Q01DX001 (ip), vehicle: saline with Tween-80.
The mark [7] stands for this setting: dose: 100.0 mg/kg/injection, schedule: Q01DX009 (ip), vehicle: saline.
[8] abbreviates: dose: 200.0 mg/kg/injection, schedule: Q01DX009 (ip), vehicle: saline.
[9] abbreviates: dose: 100.0 mg/kg/injection, schedule: Q01DX001 (ip), vehicle: Klucel (hydroxypropylcellulose) (HPC).
Where [10] appears, read: dose: 100.0 mg/kg/injection, schedule: Q04DX003 (ip), vehicle: saline with Tween-80.

The values that follow come from PubChem BioAssay AID248 (DTP/NCI, 2004).

Values joined by “and” are separate entries in the source; they are usually repeats but may differ in a detail not shown here. Identical values can stand only once. Inconclusive results and toxic doses are left out.

Regarding `O=C1c2ccccc2C(=O)c2c1c(O)c1ccccc1c2O`, the T/C (dose: 100.0 mg/kg/injection, schedule: Q#A X Z (im), vehicle: other) is 96 % of control; the T/C (dose: 100.0 mg/kg/injection, schedule: Q#A X Z (ip), vehicle: other) is 107 % of control; the T/C (dose: 100.0 mg/kg/injection, schedule: Q#A X Z (sc), vehicle: other) is 100 % of control; the T/C (dose: 200.0 mg/kg/injection, schedule: Q#A X Z (im), vehicle: other) is 97 % of control; the T/C (dose: 200.0 mg/kg/injection, schedule: Q#A X Z (ip), vehicle: other) is 96 % of control; the T/C (dose: 200.0 mg/kg/injection, schedule: Q#A X Z (sc), vehicle: other) was 107 % of control. In addition, the T/C is 94 % of control (dose: 300.0 mg/kg/injection, schedule: Q#A X Z (im), vehicle: other); 92 % of control (dose: 300.0 mg/kg/injection, schedule: Q#A X Z (ip), vehicle: other); 97 % of control (dose: 300.0 mg/kg/injection, schedule: Q#A X Z (sc), vehicle: other); 94 % of control (dose: 400.0 mg/kg/injection, schedule: Q#A X Z (im), vehicle: other); 92 % of control (dose: 400.0 mg/kg/injection, schedule: Q#A X Z (ip), vehicle: other); 96 % of control (dose: 400.0 mg/kg/injection, schedule: Q#A X Z (sc), vehicle: other). Besides, the T/C was 96 % of control (dose: 500.0 mg/kg/injection, schedule: Q#A X Z (oral), vehicle: other) and 100 % of control (dose: 750.0 mg/kg/injection, schedule: Q#A X Z (oral), vehicle: other).
`OCCOc1ccc(Cl)cc1`: the T/C under setting [1] was 98 % of control, the T/C under setting [2] was 110 % of control and the T/C under setting [3] is 102 % of control.
In the case of `O=C1c2ccccc2C(=O)C1c1ccccc1`, the T/C (dose: 100.0 mg/kg/injection, schedule: Q04DX003 (ip), vehicle: Klucel (hydroxypropylcellulose) (HPC)) is 102 % of control; the T/C (dose: 200.0 mg/kg/injection, schedule: Q04DX003 (ip), vehicle: Klucel (hydroxypropylcellulose) (HPC)) is 104 % of control; the T/C (dose: 400.0 mg/kg/injection, schedule: Q04DX003 (ip), vehicle: Klucel (hydroxypropylcellulose) (HPC)) was 106 % of control.
Turning to `O=C1CCC23/C=C/C(=O)NCCCCNCCCNC(=O)/C=C/c4ccc(c2c4)OC3C1` (stereo not drawn), the T/C is 101 % of control under setting [4], 95 % of control under setting [5] and 91 % of control under setting [6].
In the case of `C=C(Br)S(=O)(=O)C(=C)Br`, the T/C was 101 % of control (dose: 6.25 mg/kg/injection, schedule: Q04DX002 (ip), vehicle: alcohol); 111 % of control (dose: 12.5 mg/kg/injection, schedule: Q04DX002 (ip), vehicle: alcohol); 101 % of control (dose: 25.0 mg/kg/injection, schedule: Q04DX002 (ip), vehicle: alcohol).
`CCCCCCCCCCCCCCCCC1CC2CCCCC2C1` (stereo not drawn): the T/C under setting [4] was 100 % of control, the T/C under setting [5] was 93 % of control and the T/C under setting [6] is 94 % of control.
Turning to `O=C(NC1CSSC1)C(Cc1ccccc1)N1C(=O)c2ccccc2C1=O` (stereo not drawn), the T/C (dose: 6.25 mg/kg/injection, schedule: Q01DX009 (ip), vehicle: water) was 94 % of control; the T/C (dose: 12.5 mg/kg/injection, schedule: Q01DX009 (ip), vehicle: water) is 96 % of control; the T/C (dose: 25.0 mg/kg/injection, schedule: Q01DX009 (ip), vehicle: water) was 107 % of control; the T/C (dose: 50.0 mg/kg/injection, schedule: Q01DX009 (ip), vehicle: water) is 96 % of control and 88 % of control; the T/C (dose: 100.0 mg/kg/injection, schedule: Q01DX009 (ip), vehicle: water) is 87 % of control and 91 % of control; the T/C (dose: 200.0 mg/kg/injection, schedule: Q01DX009 (ip), vehicle: water) was 98 % of control. For the same compound, for the setting “dose: 400.0 mg/kg/injection, schedule: Q01DX009 (ip), vehicle: water”, the T/C was 96 % of control.
`CCOc1ccc(NC(=O)Oc2ccc(-c3ccccc3)cc2)cc1`: the T/C is, setting by setting: under setting [4], 93 % of control; under setting [1], 100 % of control and 90 % of control; (dose: 100.0 mg/kg/injection, schedule: Q04DX002 (ip), vehicle: saline with Tween-80) 104 % of control and 106 % of control; under setting [5], 91 % of control; under setting [2], 87 % of control and 92 % of control; (dose: 200.0 mg/kg/injection, schedule: Q04DX002 (ip), vehicle: saline with Tween-80) 100 % of control and 101 % of control. Besides, the T/C by setting is: under setting [6], 89 % of control; under setting [3], 97 % of control and 87 % of control; (dose: 400.0 mg/kg/injection, schedule: Q04DX002 (ip), vehicle: saline with Tween-80) 92 % of control.
Turning to `CNP1(N(C)C)=NP(NC)(N(C)C)=NP(NC)(N(C)C)=N1` (stereo not drawn), the T/C was 102 % of control (dose: 50.0 mg/kg/injection, schedule: Q01DX009 (ip), vehicle: saline); 100 % of control under setting [7]; 94 % of control under setting [8].
`O=NN(CCCl)C(=O)CCCCC(=O)N(CCCl)N=O`: the T/C reads like this: (dose: 25.0 mg/kg/injection, schedule: Q01DX001 (ip), vehicle: carboxymethylcellulose (CMC)) 154 % of control; (dose: 50.0 mg/kg/injection, schedule: Q01DX001 (ip), vehicle: carboxymethylcellulose (CMC)) 160 % of control; under setting [9], 75 % of control; (dose: 100.0 mg/kg/injection, schedule: Q01DX001 (ip), vehicle: carboxymethylcellulose (CMC)) 165 % of control; (dose: 200.0 mg/kg/injection, schedule: Q01DX001 (ip), vehicle: Klucel (hydroxypropylcellulose) (HPC)) 67 % of control; (dose: 200.0 mg/kg/injection, schedule: Q01DX001 (ip), vehicle: carboxymethylcellulose (CMC)) 122 % of control.
In the case of `CC(NC(=O)C(F)(F)F)C(=O)O` (stereo not drawn), the T/C is 92 % of control under setting [7]; 103 % of control (dose: 100.0 mg/kg/injection, schedule: Q04DX003 (ip), vehicle: saline); 95 % of control under setting [8]; 93 % of control (dose: 200.0 mg/kg/injection, schedule: Q04DX003 (ip), vehicle: saline); 113 % of control (dose: 400.0 mg/kg/injection, schedule: Q01DX009 (ip), vehicle: saline); 97 % of control (dose: 400.0 mg/kg/injection, schedule: Q04DX003 (ip), vehicle: saline).
`CN(Cc1ccccc1)c1ccc2nc(N)nc(N)c2c1`: the T/C was 105 % of control (dose: 25.0 mg/kg/injection, schedule: Q04DX003 (ip), vehicle: saline with Tween-80); 98 % of control (dose: 50.0 mg/kg/injection, schedule: Q04DX003 (ip), vehicle: saline with Tween-80); 108 % of control under setting [10].
As to `O=C1C2C3C=CC(C3)C2C(=O)N1c1ccccc1` (stereo not drawn), the T/C under setting [10] is 96 % of control; the T/C (dose: 200.0 mg/kg/injection, schedule: Q04DX003 (ip), vehicle: saline with Tween-80) is 101 % of control; the T/C (dose: 400.0 mg/kg/injection, schedule: Q04DX003 (ip), vehicle: saline with Tween-80) was 107 % of control.
As to `Cc1cc(C)c2ccc(N)nc2n1`, the T/C (dose: 9.5 mg/kg/injection, schedule: Q01DX001 (ip), vehicle: saline) was 86 % of control; the T/C (dose: 19.0 mg/kg/injection, schedule: Q01DX001 (ip), vehicle: saline) was 91 % of control; the T/C (dose: 38.0 mg/kg/injection, schedule: Q01DX001 (ip), vehicle: saline) was 101 % of control.
Regarding `CCCC1C2=C(C(=O)OC2=O)C2C(CC)CC3=C(C(=O)OC3=O)C12` (stereo not drawn), the T/C (dose: 12.5 mg/kg/injection, schedule: Q01DX001 (ip), vehicle: Klucel (hydroxypropylcellulose) (HPC)) is 90 % of control; the T/C (dose: 25.0 mg/kg/injection, schedule: Q01DX001 (ip), vehicle: Klucel (hydroxypropylcellulose) (HPC)) was 94 % of control; the T/C (dose: 50.0 mg/kg/injection, schedule: Q01DX001 (ip), vehicle: Klucel (hydroxypropylcellulose) (HPC)) was 94 % of control; the T/C (dose: 56.25 mg/kg/injection, schedule: Q04DX003 (ip), vehicle: Klucel (hydroxypropylcellulose) (HPC)) was 97 % of control; the T/C under setting [9] is 95 % of control; the T/C (dose: 112.5 mg/kg/injection, schedule: Q04DX003 (ip), vehicle: Klucel (hydroxypropylcellulose) (HPC)) is 95 % of control. Besides, the T/C reads like this: (dose: 150.0 mg/kg/injection, schedule: Q01DX001 (ip), vehicle: Klucel (hydroxypropylcellulose) (HPC)) 89 % of control; (dose: 225.0 mg/kg/injection, schedule: Q01DX001 (ip), vehicle: Klucel (hydroxypropylcellulose) (HPC)) 97 % of control; (dose: 225.0 mg/kg/injection, schedule: Q04DX003 (ip), vehicle: Klucel (hydroxypropylcellulose) (HPC)) 94 % of control.
